From patent publication US5776929A, “Benzodiazepine derivative” (Shionogi & Co., Ltd., priority 1993, dated 1998) come the findings set out here.

The subject of test [1] is gastric acid secretion. The experiment in a line: Basic gastric acid secretion after interruption following continuous administration (pylorus ligation). It counts as in vivo, rat (male Sprague Dawley). The settings on record: for total acid secretion: 10 mg/kg/day (Table 6). As to the method:
(§1) Male Sprague Dawley rats weighing from 240 to 280 g were used as experimental animals.
(§2) As H2 B, famotidine, and as gastrin receptor antagonist, L-365,260 described in Example 281 of Japanese Patent Publication (KOKAI) 63-238069 (EP 167,919; EP 284,256; U.S. Pat. No. 4,820,834; U.S. Pat. No. 5,004,741)), were used. […] For administration, a suspension of 10 mg famotidine or L-365,260 in 1 ml vehicle (0.5% methyl cellulose solution) was prepared. The combined formulation is a mixture of an equal amount of each suspension.
(§3) A previously determined dose of each test compound (1.0 ml or 3.0 ml/kg) was charged in a syringe and administered orally to a rat directly into gaster using a stainless probe needle (.phi.1.2×L 80 mm) equipped to the syringe.
(§4) B. Continuous administration test
(§5) (A) A group consists of animals that received vehicle (0.5% methyl cellulose solution, 1 ml/kg).
(§6) (B) A group consists of animals that received famotidine (a suspension of 10 mg famotidine in 1 ml 0.5% methyl cellulose) continuously at a dose of 10 or 30 mg/kg/day.
(§7) (C) A group consists of animals that received L-365,260 continuously at a dose of 10 mg/kg/day.
(§8) (D) A group consists of animals that received a combined formulation of famotidine and L-365,260 at a dose of 10 mg/kg/day for each compound.
(2) Basic gastric acid secretion after interruption following the continuous administration of famotidine
To a rat bred normally was administered continuously famotidine at a dose of 10 or 30 mg/kg/day for a week. After the final administration, the basis gastric acid secretion (total acid excretion) was determined according to the pylorus ligation method (4-hour-method) [Shay, H. et al., Gastroenterology, 5: 43-61 (1945)]. The determination was carried out following the final administration, […], […]
Thus, rats were subjected to laparotomy under ether anesthetization and pylorus was ligated. Four hours later, gaster was extracted under ether anaesthetization and the accumulated gastric juice was collected. After centrifugation (3000 rpm, 10 min), pH and acidity of gastric juice was determined. The acidity was measured upto pH 7.0 with 0.1N NaOH. The total acid secretion (μEq/4 hr) was calculated by multiplying acidity by the volume of juice for each animal.

For test [2], the system named is gastric damage due to stress induced by restricted water-immersion. The experiment in a line: Gastric damage due to stress induced by restricted water-immersion (single administration). It is filed as in vivo, rat (male Sprague Dawley). Conditions: for lesion index (% to control): 10 rats. As for the experimental part:
as §1, §2, §3
(1) Gastric damage due to stress induced by restricted water-immersion (single administration test)
Twenty four hour starved (ad libitum for water) male Sprague Dawley rats (270-290 g) were orally administered with a test compound and, 30 min later, were loaded with stress in the following manner. Rats were placed in a stress cage (Natsume Seisakusyo) and immersed in water tank at 23° C. upto the level of pectoral processus xiphoideus [Takagi et al, Chem. Pharm. Bull (Tokyo) 12, 465-472 (1964)]. Seven hours later, animals were withdrawn from the water tank and killed with ether. The gaster was extracted and 1% formalin solution (13 ml) was injected in it. […] The gaster was observed under anatomic microscope (x10) and longer diameter (mm) of each damages (bleeding erosion) appearing around fundic glands was measured.

Test [3] has as its system aspirin-induced gastric mucosa damage. The experiment in a line: Aspirin-induced gastric mucosa damage following continuous administration. It counts as in vivo, rat (male Sprague Dawley). As for the experimental part:
as §1, §2, §3, §4, §5, §6, §7, §8
(3) Aspirin-induced gastric mucosa damage following a continuous administration of famotidine
After two-day-interruption following a continuous administration of famotidine, aspirin (200 mg/kg) was administered to rats orally. Seven hours later, gaster was extracted under ether anesthetization and subjected to formalin treatment with 1% formalin solution. The length (mm) of gastric mucosa damage appearing around fundic glands was then measured. Lesion index was calculated by adding all the measurements. Rats had been starved for 24 hr before aspirin administration (ad libitum for water).

The next test concerns the target T1, gastrin receptor (Cavia porcellus, UniProt H0VZC5).
T1 construct: stomach was extracted from each animal immediately, from which gastric glands were prepared; from tissue; host or cells: gastric (fundic) glands of male Hartley guinea pigs
T1 sequence (H0VZC5 1-426): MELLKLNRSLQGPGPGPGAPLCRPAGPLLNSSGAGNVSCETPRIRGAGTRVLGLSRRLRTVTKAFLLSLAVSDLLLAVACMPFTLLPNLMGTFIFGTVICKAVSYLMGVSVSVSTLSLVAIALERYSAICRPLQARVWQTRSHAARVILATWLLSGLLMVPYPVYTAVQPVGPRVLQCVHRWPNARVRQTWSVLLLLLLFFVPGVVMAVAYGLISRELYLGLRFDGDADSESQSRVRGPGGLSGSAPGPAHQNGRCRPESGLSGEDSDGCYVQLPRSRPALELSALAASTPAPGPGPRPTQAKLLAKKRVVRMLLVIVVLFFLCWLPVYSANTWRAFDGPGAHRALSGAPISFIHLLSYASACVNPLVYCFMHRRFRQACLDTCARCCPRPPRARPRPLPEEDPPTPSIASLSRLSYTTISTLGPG
The test can be described thus: Gastrin receptor antagonism, displacement of 125I-labeled gastrin, gastric (fundic) gland cells. It counts as binding, guinea pig (male Hartley). Conditions: guinea pig gastric glands, 125I-gastrin 0.2 nM, 30 min, 25 °C; read-out: Receptor Gastrin (IC50). (Displacement assays read how much labelled ligand stays bound in the presence of the test substance.)

The target in another test is T2, CCK-A receptor (Mus musculus, UniProt O08786).
T2 construct: crude membrane specimen from mouse pancreas; from tissue; host or cells: pancreas of male ddY mice, crude membranes
T2 sequence (O08786 1-436): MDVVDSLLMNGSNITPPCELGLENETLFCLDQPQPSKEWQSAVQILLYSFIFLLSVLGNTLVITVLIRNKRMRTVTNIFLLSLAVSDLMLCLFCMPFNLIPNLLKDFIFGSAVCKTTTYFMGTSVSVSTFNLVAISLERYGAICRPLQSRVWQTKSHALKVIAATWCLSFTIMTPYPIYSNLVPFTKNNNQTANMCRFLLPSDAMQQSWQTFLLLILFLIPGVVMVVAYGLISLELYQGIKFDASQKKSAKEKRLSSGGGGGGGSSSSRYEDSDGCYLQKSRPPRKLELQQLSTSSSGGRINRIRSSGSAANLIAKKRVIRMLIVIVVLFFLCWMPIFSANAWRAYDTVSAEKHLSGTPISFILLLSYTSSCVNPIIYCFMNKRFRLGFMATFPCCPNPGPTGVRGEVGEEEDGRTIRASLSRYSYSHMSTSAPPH
The experiment in a line: CCK-A receptor antagonism, displacement of [3H]CCK-8, pancreas crude membrane. It counts as binding, mouse (male ddY). Conditions: mouse pancreas membrane, [3H]CCK-8 1 nM, 90 min, 25 °C; read-out: Receptor CCK-A (IC50).

For test [4], the system named is gastric acid secretion. The experiment in a line: Inhibitory effect on gastric acid secretion by Schild method (pentagastrin-stimulated). It counts as in vivo, rat (male Sprague Dawley). The settings on record: 0.3 mg/kg, intraduodenal, rat, read-out: Inhibitory Effect on acid secretion (Schild method), percent inhibition. The text has this:
Evaluation of Inhibitory Effect on Gastric Acid Secretion by Schild Method
Twenty four hour starved (ad libitum for water) male Sprague Dawley rats (8-week-old) were anesthetized with urethane (1.5 g/kg S.C.) and kept breathing with esophagus cannulas. After laparotomy, esophagus cannulas were inserted orally up to proventriculus and ligated around gastric cardiac. Perfusion cannulas were inserted from duodenum into stomach and ligated around pylorus. Another cannulas were placed into duodenum and ligated for administration of drug. After sutra of abdomen, stomach was perfused via the esophagus cannulas with physiological saline (37° C.) while collecting perfusate for a 15 min interval. The perfusate was subjected to titration with 0.001 N NaOH solution to determine the acidity. When the basal acid secretion became stable, pentagastrin ([…]) was administered in a sustained manner via common carotid vein for about 90 min until the acid secretion reached approximately the highest level, when a test compound (0.5% M.C. suspension) was administered into duodenum through cannulas. The perfusate was collected for a 15 min interval to monitor the acid secretion for 90 min. The percent inhibition was calculated as follows:
Percent inhibition (%)=100×(A-B)/(C-B)
A: the minimum value of total acidity observed after the administration of a test compound;
B: the total acidity obtained immediately before the administration of pentagastrin; and
C: the total acidity obtained immediately before the administration of a test compound.

The next test addresses T3, CCK-B receptor (Mus musculus, UniProt P56481).
T3 construct: crude membrane specimen from mouse cerebral cortex; from tissue; host or cells: cerebral cortex of male ddY mice, crude membranes
T3 sequence (P56481 1-453): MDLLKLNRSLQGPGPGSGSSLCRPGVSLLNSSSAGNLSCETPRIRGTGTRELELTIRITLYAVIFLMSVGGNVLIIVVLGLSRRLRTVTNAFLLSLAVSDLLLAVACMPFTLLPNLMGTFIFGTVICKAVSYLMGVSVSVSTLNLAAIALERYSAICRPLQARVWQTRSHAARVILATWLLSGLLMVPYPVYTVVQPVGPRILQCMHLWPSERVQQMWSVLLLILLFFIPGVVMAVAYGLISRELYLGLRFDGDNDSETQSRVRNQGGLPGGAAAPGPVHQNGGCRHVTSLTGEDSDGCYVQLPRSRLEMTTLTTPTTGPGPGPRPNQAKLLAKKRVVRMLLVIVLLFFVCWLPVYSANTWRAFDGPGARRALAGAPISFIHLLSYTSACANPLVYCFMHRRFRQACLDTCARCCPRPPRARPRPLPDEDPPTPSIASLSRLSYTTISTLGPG
The test can be described thus: CCK-B receptor antagonism, displacement of [3H]CCK-8, cerebral cortex crude membrane. It is filed as binding, mouse (male ddY). Conditions: mouse cerebral cortex membrane, [3H]CCK-8 1 nM, 90 min, 25 °C; read-out: Receptor CCK-B (IC50).

`Cc1cccc(NC(=O)N[C@@H]2N=C(c3ccccc3)c3ccccc3N(C)C2=O)c1` [L-365,260]: the “acid excretion after continuous administration alone (in words)” value with gastric acid secretion [1] (alone for a week) is recorded as “did not differed from those obtained in control group”. The values for the total acid secretion in the test with gastric acid secretion [1] (day 2 after 7-day treatment) and in the test on gastric acid secretion [1] (day 3 after 7-day treatment) were 631.4 ± 147.9 μEq/4 hr and 681.0 ± 142.9 μEq/4 hr, respectively. Further, the “lesion index (% to control)” value in test [2] (1 mg/kg p.o.) is 130.4 ± 20.6 % to control; in test [2] (3 mg/kg p.o.) it was 84.7 ± 17.4 % to control. Further, the “inhibition of appearance of stress gastric damage (in words)” value in test [2] (at either dose (1 or 3 mg/kg)) is listed as “does not inhibit the appearance of stress gastric damage”. Besides, the “lesion index (mm^2)” value in test [3] (10 mg/kg p.o., 7 days, aspirin 200 mg/kg after two-day interruption) amounted to 43.2 ± 13.7 mm^2. The “aspirin-induced gastric mucosa damage (in words)” value in test [3] (continuous administration, two-day interruption) is “the condition seemed to have tendency to deteriorate, but it is not significant”.

The IC50 is the concentration at which inhibition is half-maximal. For the compound `Cc1cccc(NC(=O)NC2C(=O)N(CC(=O)c3ccco3)c3ccccc3N(CC(=O)c3ccco3)C2=O)c1` [Compound 8f, 1,5-Bis-(2-furylcarbonylmethyl)-3-{N'-(m-tolyl)-ureido}-1H-1,5-benzodiazepine-2,4(3H,5H)-dione], the values for the IC50 at gastrin receptor, on CCK-A receptor and on CCK-B receptor were 3 nM, 120 nM and 17 nM, respectively. In addition, in the test on gastric acid secretion [4], the inhibition in vivo at 0.3 mg/kg turned out to be 73%.

As to `CC(C)S(=O)(=O)NC(=O)c1cccc(NC(=O)NC2C(=O)N(CC(=O)C3CC3)c3ccccc3N(CC(=O)C3CC3)C2=O)c1` [Compound 17-iii, 1,5-Bis-(cyclopropylcarbonylmethyl)-3-(N'-(m-(isopropylsulfonylaminocarbonyl)phenyl)ureido)-1H-1,5-benzodiazepine-2,4(3H,5H)-dione], the IC50 was 6 nM at gastrin receptor, 11500 nM on CCK-A receptor and 190 nM at CCK-B receptor. For the same compound, in the test on gastric acid secretion [4], the inhibition in vivo at 0.3 mg/kg was 47%.
